Series [1] concerns the target Transmembrane protease serine 2 (Homo sapiens, UniProt O15393). Description: Inhibition of TMPRSS2 (106 to 492 residues) (unknown origin) using Boc-QAR-AMC as substrate measured for 20 mins by spectrophotometer analysis.
In series [2] the test system is SARS-CoV-2. Description: Antiviral activity against SARS-CoV-2 B.1.1.7 infected in human Calu-3 cells assessed as inhibition of viral infection preincubated for 1 hr followed by viral infection measured after 48 hrs by Hoechst 33342 staining based analysis. The series is classed as functional, organism-based. Conditions: Severe acute respiratory syndrome coronavirus 2, B.1.1.7, Calu-3.

Series [3] deals with Calu-3. Description: Cytotoxicity against human Calu-3 cells assessed as reduction in cell viability upto 500 uM measured after 48 hrs by Hoechst 33342 staining based analysis. It counts as toxicity. To be noted: calu-3, 48 h.
Series [4] concerns Calu-3. Description: Cytotoxicity against human Calu-3 cells assessed as reduction in cell viability. It counts as functional.
In series [5] the test system is SARS-CoV-2. Description: Antiviral activity against SARS-CoV-2 B.1.1.7 infected in human Caco-2 cells assessed as inhibition of viral infection preincubated for 1 hr followed by viral infection measured after 48 hrs by Hoechst 33342 staining based analysis. It counts as functional, organism-based. To be noted: Severe acute respiratory syndrome coronavirus 2, time 49.0 hrs.

This is an account of results in ChEMBL document CHEMBL5247670, “TMPRSS2 Inhibitor Discovery Facilitated through an In Silico and Biochemical Screening Platform” (ACS Med Chem Lett, 2023).

Calls of active or inactive are those of the source. No cut-off for these calls is given here.

As usually defined, the IC50 is the concentration that gives 50% inhibition. Broadly, the CC50 is the concentration giving 50% cytotoxicity.

Transmembrane protease serine 2, sequence (O15393 1-255 limits assumed): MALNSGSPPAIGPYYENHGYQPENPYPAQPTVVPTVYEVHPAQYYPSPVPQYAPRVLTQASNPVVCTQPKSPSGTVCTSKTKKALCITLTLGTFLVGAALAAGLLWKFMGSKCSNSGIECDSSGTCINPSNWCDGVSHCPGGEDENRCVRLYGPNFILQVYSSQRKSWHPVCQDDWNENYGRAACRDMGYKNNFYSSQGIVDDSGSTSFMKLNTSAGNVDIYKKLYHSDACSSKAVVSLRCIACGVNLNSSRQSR
Transmembrane protease serine 2, sequence (O15393 256-492 limits assumed): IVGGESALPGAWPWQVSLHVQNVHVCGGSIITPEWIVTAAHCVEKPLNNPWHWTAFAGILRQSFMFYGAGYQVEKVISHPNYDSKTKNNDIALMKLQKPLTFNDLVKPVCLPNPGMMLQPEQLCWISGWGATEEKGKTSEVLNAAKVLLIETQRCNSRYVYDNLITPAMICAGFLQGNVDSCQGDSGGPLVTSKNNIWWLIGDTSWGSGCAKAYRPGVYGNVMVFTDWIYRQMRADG

Regarding `Cc1ccc(C(=O)Nc2ccc3c(c2)CCN(C(=N)N)C3)cc1`, the IC50 in series [1] stood at 4 µM.

The molecule `N=C(N)N1CCc2cc(NC(=O)c3ccc4ccccc4c3)ccc2C1` displayed an IC50 in series [1] of 4 µM.

`N=C(N)N1CCc2cc(NC(=O)c3cccc4ccccc34)ccc2C1` yielded an IC50 in series [1] of 3.4 µM.

Take `N=C(N)N1CCc2ccccc2C1` [DEBRISOQUIN]: the IC50 worked out at 22 µM in series [2] and 23 µM in series [1]. In addition, in series [3], the Activity result was “Non-Toxic”. Also, in series [4], the CC50 was above 500 µM. In addition, the outcome in series [5] was inactive.

Regarding `N=C(N)c1ccc(OCCCOc2ccc(C(=N)N)cc2)cc1` [PROPAMIDINE], the CC50 in series [4] was above 500 µM.
